CC1=NN(c2ccccc2)C(=O)C1
solubility (mole fraction)
Conditions | 273.15 K | 278.15 K | 283.15 K | 288.15 K | 293.15 K | 298.15 K | 303.15 K | 308.15 K | 313.15 K
in acetonitrile | 0.00554 | 0.00717 | 0.0092 | 0.0116 | 0.0144 | 0.018 | 0.0218 | 0.0265 | 0.0314
in ethanol | 0.0172 | 0.0197 | 0.0226 | 0.0253 | 0.0285 | 0.0321 | 0.0358 | 0.0397 | 0.0445
in ethyl acetate | 0.0152 | 0.0173 | 0.0196 | 0.0223 | 0.0253 | 0.0284 | 0.0323 | 0.0368 | 0.0419
in methanol | 0.0108 | 0.013 | 0.0153 | 0.0179 | 0.0208 | 0.0238 | 0.0274 | 0.0312 | 0.0354
in n-propanol | 0.0199 | 0.0222 | 0.0249 | 0.028 | 0.0317 | 0.0353 | 0.0393 | 0.0433 | 0.0472
